ChEMBL document CHEMBL1687747, “Effect of mild and moderate liver disease on the pharmacokinetics of isavuconazole after intravenous and oral administration of a single dose of the prodrug BAL8557” (Antimicrob Agents Chemother, 2009)

Experiments:
Conditions in all cases: in vivo
[1] = tested on: Homo sapiens; assay: AUC (0 to infinity) in plasma of human with mild liver impairment assessed as isavuconazole level at 180.5 mg, iv administered as single dose over 2 hrs following overnight fasting by high-pressure liquid chromatography coupled with tandem mass spectrometry; type: ADME, organism-based; parameters: dose 180.5 mg, time infinity, route intravenous
[2] = tested on: Homo sapiens; assay: AUC (0 to infinity) in plasma of human with moderate liver impairment assessed as isavuconazole level at 180.5 mg, iv administered as single dose over 2 hrs following overnight fasting by high-pressure liquid chromatography coupled with tandem mass spectrometry; type: ADME, organism-based; parameters: dose 180.5 mg, route intravenous, time infinity
[3] = tested on: Homo sapiens; assay: AUC (0 to infinity) in healthy human plasma assessed as isavuconazole level at 180.5 mg, po administered as single dose over 2 hrs following overnight fasting by high-pressure liquid chromatography coupled with tandem mass spectrometry; type: ADME, organism-based; parameters: dose 180.5 mg, route oral, time infinity
[4] = tested on: Homo sapiens; assay: AUC (0 to infinity) in plasma of human with mild liver impairment assessed as isavuconazole level at 180.5 mg, po administered as single dose over 2 hrs following overnight fasting by high-pressure liquid chromatography coupled with tandem mass spectrometry; type: ADME, organism-based; parameters: dose 180.5 mg, route oral, time infinity
[5] = tested on: Homo sapiens; assay: AUC (0 to infinity) in plasma of human with moderate liver impairment assessed as isavuconazole level at 180.5 mg, po administered as single dose over 2 hrs following overnight fasting by high-pressure liquid chromatography coupled with tandem mass spectrometry; type: ADME, organism-based; parameters: dose 180.5 mg, route oral, time infinity
[6] = tested on: Homo sapiens; assay: Tmax in healthy human plasma assessed as isavuconazole level at 180.5 mg, po administered as single dose over 2 hrs following overnight fasting by high-pressure liquid chromatography coupled with tandem mass spectrometry; type: ADME, organism-based
[7] = tested on: Homo sapiens; assay: Tmax in plasma of human with mild liver impairment assessed as isavuconazole level at 180.5 mg, po administered as single dose over 2 hrs following overnight fasting by high-pressure liquid chromatography coupled with tandem mass spectrometry; type: ADME, organism-based
[8] = tested on: Homo sapiens; assay: Tmax in plasma of human with moderate liver impairment assessed as isavuconazole level at 180.5 mg, po administered as single dose over 2 hrs following overnight fasting by high-pressure liquid chromatography coupled with tandem mass spectrometry; type: ADME, organism-based
[9] = tested on: Homo sapiens; assay: Cmax in healthy human plasma assessed as isavuconazole level at 180.5 mg, iv administered as single dose over 2 hrs following overnight fasting by high-pressure liquid chromatography coupled with tandem mass spectrometry by HPLC-tandem mass spectrometry; type: ADME, organism-based; parameters: dose 180.5 mg, route intravenous
[10] = tested on: Homo sapiens; assay: Cmax in plasma of human with mild liver impairment assessed as isavuconazole level at 180.5 mg, iv administered as single dose over 2 hrs following overnight fasting by high-pressure liquid chromatography coupled with tandem mass spectrometry by HPLC-tandem mass spectrometry; type: ADME, organism-based; parameters: dose 180.5 mg, route intravenous
[11] = tested on: Homo sapiens; assay: Cmax in plasma of human with moderate liver impairment assessed as isavuconazole level at 180.5 mg, iv administered as single dose over 2 hrs following overnight fasting by high-pressure liquid chromatography coupled with tandem mass spectrometry by HPLC-tandem mass spectrometry; type: ADME, organism-based; parameters: dose 180.5 mg, route intravenous
[12] = tested on: Homo sapiens; assay: Cmax in healthy human plasma assessed as isavuconazole level at 180.5 mg, po administered as single dose over 2 hrs following overnight fasting by high-pressure liquid chromatography coupled with tandem mass spectrometry by HPLC-tandem mass spectrometry; type: ADME, organism-based; parameters: dose 180.5 mg, route oral
[13] = tested on: Homo sapiens; assay: Cmax in plasma of human with mild liver impairment assessed as isavuconazole level at 180.5 mg, po administered as single dose over 2 hrs following overnight fasting by high-pressure liquid chromatography coupled with tandem mass spectrometry by HPLC-tandem mass spectrometry; type: ADME, organism-based; parameters: dose 180.5 mg, route oral
[14] = tested on: Homo sapiens; assay: Cmax in plasma of human with moderate liver impairment assessed as isavuconazole level at 180.5 mg, po administered as single dose over 2 hrs following overnight fasting by high-pressure liquid chromatography coupled with tandem mass spectrometry by HPLC-tandem mass spectrometry; type: ADME, organism-based; parameters: dose 180.5 mg, route oral
[15] = tested on: Homo sapiens; assay: AUC (0 to infinity) in healthy human plasma assessed as isavuconazole level at 180.5 mg, iv administered as single dose over 2 hrs following overnight fasting by high-pressure liquid chromatography coupled with tandem mass spectrometry; type: ADME, organism-based; parameters: dose 180.5 mg, time infinity, route intravenous
[16] = tested on: Homo sapiens; assay: Systemic clearance in healthy human plasma assessed as isavuconazole level at 180.5 mg, iv administered as single dose over 2 hrs following overnight fasting by high-pressure liquid chromatography coupled with tandem mass spectrometry; type: ADME, organism-based
[17] = tested on: Homo sapiens; assay: Systemic clearance in plasma of human with mild liver impairment assessed as isavuconazole level at 180.5 mg, iv administered as single dose over 2 hrs following overnight fasting by high-pressure liquid chromatography coupled with tandem mass spectrometry; type: ADME, organism-based
[18] = tested on: Homo sapiens; assay: Systemic clearance in plasma of human with moderate liver impairment assessed as isavuconazole level at 180.5 mg, iv administered as single dose over 2 hrs following overnight fasting by high-pressure liquid chromatography coupled with tandem mass spectrometry; type: ADME, organism-based
[19] = tested on: Homo sapiens; assay: Oral clearance in healthy human plasma assessed as isavuconazole level at 180.5 mg, po administered as single dose over 2 hrs following overnight fasting by high-pressure liquid chromatography coupled with tandem mass spectrometry; type: ADME, organism-based
[20] = tested on: Homo sapiens; assay: Oral clearance in plasma of human with mild liver impairment assessed as isavuconazole level at 180.5 mg, po administered as single dose over 2 hrs following overnight fasting by high-pressure liquid chromatography coupled with tandem mass spectrometry; type: ADME, organism-based
[21] = tested on: Homo sapiens; assay: Oral clearance in plasma of human with moderate liver impairment assessed as isavuconazole level at 180.5 mg, po administered as single dose over 2 hrs following overnight fasting by high-pressure liquid chromatography coupled with tandem mass spectrometry; type: ADME, organism-based
[22] = tested on: Homo sapiens; assay: Volume of distribution at steady state in healthy human assessed as isavuconazole level at 180.5 mg, iv administered as single dose over 2 hrs following overnight fasting by high-pressure liquid chromatography coupled with tandem mass spectrometry; type: ADME, organism-based
[23] = tested on: Homo sapiens; assay: Volume of distribution at steady state in of human with mild liver impairment assessed as isavuconazole level at 180.5 mg, iv administered as single dose over 2 hrs following overnight fasting by high-pressure liquid chromatography coupled with tandem mass spectrometry; type: ADME, organism-based
[24] = tested on: Homo sapiens; assay: Volume of distribution at steady state in of human with moderate liver impairment assessed as isavuconazole level at 180.5 mg, iv administered as single dose over 2 hrs following overnight fasting by high-pressure liquid chromatography coupled with tandem mass spectrometry; type: ADME, organism-based
[25] = tested on: Homo sapiens; assay: Volume of distribution at steady state in healthy human assessed as isavuconazole level at 180.5 mg, po administered as single dose over 2 hrs following overnight fasting by high-pressure liquid chromatography coupled with tandem mass spectrometry; type: ADME, organism-based
[26] = tested on: Homo sapiens; assay: Volume of distribution at steady state in of human with mild liver impairment assessed as isavuconazole level at 180.5 mg, po administered as single dose over 2 hrs following overnight fasting by high-pressure liquid chromatography coupled with tandem mass spectrometry; type: ADME, organism-based
[27] = tested on: Homo sapiens; assay: Volume of distribution at steady state in of human with moderate liver impairment assessed as isavuconazole level at 180.5 mg, po administered as single dose over 2 hrs following overnight fasting by high-pressure liquid chromatography coupled with tandem mass spectrometry; type: ADME, organism-based
[28] = tested on: Homo sapiens; assay: Terminal half life in healthy human assessed as isavuconazole level at 180.5 mg, iv administered as single dose over 2 hrs following overnight fasting by high-pressure liquid chromatography coupled with tandem mass spectrometry; type: ADME, organism-based
[29] = tested on: Homo sapiens; assay: Terminal half life in human with mild liver impairment assessed as isavuconazole level at 180.5 mg, iv administered as single dose over 2 hrs following overnight fasting by high-pressure liquid chromatography coupled with tandem mass spectrometry; type: ADME, organism-based
[30] = tested on: Homo sapiens; assay: Terminal half life in human with moderate liver impairment assessed as isavuconazole level at 180.5 mg, iv administered as single dose over 2 hrs following overnight fasting by high-pressure liquid chromatography coupled with tandem mass spectrometry; type: ADME, organism-based
[31] = tested on: Homo sapiens; assay: Terminal half life in healthy human assessed as isavuconazole level at 180.5 mg, po administered as single dose over 2 hrs following overnight fasting by high-pressure liquid chromatography coupled with tandem mass spectrometry; type: ADME, organism-based
[32] = tested on: Homo sapiens; assay: Terminal half life in human with mild liver impairment assessed as isavuconazole level at 180.5 mg, po administered as single dose over 2 hrs following overnight fasting by high-pressure liquid chromatography coupled with tandem mass spectrometry; type: ADME, organism-based
[33] = tested on: Homo sapiens; assay: Terminal half life in human with moderate liver impairment assessed as isavuconazole level at 180.5 mg, po administered as single dose over 2 hrs following overnight fasting by high-pressure liquid chromatography coupled with tandem mass spectrometry; type: ADME, organism-based
[34] = tested on: Homo sapiens; assay: AUC (0 to t) in healthy human at 180.5 mg, iv administered as single dose over 2 hrs following overnight fasting by high-pressure liquid chromatography coupled with tandem mass spectrometry; type: ADME, organism-based, Plasma; parameters: time < 2 hr, dose 180.5 mg, route intravenous
[35] = tested on: Homo sapiens; assay: AUC (0 to t) in human with mild liver impairment at 180.5 mg, iv administered as single dose over 2 hrs following overnight fasting by high-pressure liquid chromatography coupled with tandem mass spectrometry; type: ADME, organism-based; parameters: time < 2 hr, dose 180.5 mg, route intravenous
[36] = tested on: Homo sapiens; assay: AUC (0 to t) in human with moderate liver impairment at 180.5 mg, iv administered as single dose over 2 hrs following overnight fasting by high-pressure liquid chromatography coupled with tandem mass spectrometry; type: ADME, organism-based; parameters: dose 180.5 mg, time < 2 hr, route intravenous
[37] = tested on: Homo sapiens; assay: AUC (0 to t) in healthy human assessed as metabolite BAL8728 level at 180.5 mg, iv administered as single dose over 2 hrs following overnight fasting by high-pressure liquid chromatography coupled with tandem mass spectrometry; type: ADME, organism-based, Plasma; parameters: dose 180.5 mg, time < 2 hr, route intravenous
[38] = tested on: Homo sapiens; assay: Toxicity in healthy human at 180.5 mg, iv administered as single dose over 2 hrs following overnight fasting; type: organism-based
[39] = tested on: Homo sapiens; assay: Toxicity in of human with mild liver impairment at 180.5 mg, iv administered as single dose over 2 hrs following overnight fasting; type: organism-based
[40] = tested on: Homo sapiens; assay: Toxicity in of human with moderate liver impairment at 180.5 mg, iv administered as single dose over 2 hrs following overnight fasting; type: organism-based
[41] = tested on: Homo sapiens; assay: Toxicity in of human with moderate liver impairment at 180.5 mg, po administered as single dose over 2 hrs following overnight fasting; type: organism-based
[42] = tested on: Homo sapiens; assay: Toxicity in of human with mild liver impairment at 180.5 mg, po administered as single dose over 2 hrs following overnight fasting; type: organism-based
[43] = tested on: Homo sapiens; assay: Toxicity in healthy human at 180.5 mg, po administered as single dose over 2 hrs following overnight fasting; type: organism-based
[44] = tested on: Homo sapiens; assay: AUC (0 to t) in human with mild liver impairment assessed as metabolite BAL8728 level at 180.5 mg, iv administered as single dose over 2 hrs following overnight fasting by high-pressure liquid chromatography coupled with tandem mass spectrometry; type: ADME, organism-based; parameters: dose 180.5 mg, time < 2 hr, route intravenous
[45] = tested on: Homo sapiens; assay: AUC (0 to t) in human with moderate liver impairment assessed as metabolite BAL8728 level at 180.5 mg, iv administered as single dose over 2 hrs following overnight fasting by high-pressure liquid chromatography coupled with tandem mass spectrometry; type: ADME, organism-based; parameters: dose 180.5 mg, time < 2 hr, route intravenous

Work on `CNCC(=O)OCc1cccnc1N(C)C(=O)OC(C)[n+]1cnn(C[C@](O)(c2cc(F)ccc2F)[C@@H](C)c2nc(-c3ccc(C#N)cc3)cs2)c1.Cl.[Cl-]` (stereo not given in full) yielded an AUC [1] of 72 µg/h/mL, an AUC [2] of 101 µg/h/mL and an AUC [3] of 45 µg/h/mL. The AUC [4] was 98 µg/h/mL, the AUC [5] was 62 µg/h/mL and the Tmax [6] was 2.4 h. It also gave a Tmax [7] of 2.7 h, a Tmax [8] of 2.6 h and a Cmax [9] of 1090 ng/mL. The Cmax [10] was 980 ng/mL, the Cmax [11] was 840 ng/mL and the Cmax [12] was 840 ng/mL. It also gave a Cmax [13] of 730 ng/mL, a Cmax [14] of 470 ng/mL and an AUC [15] of 39 µg/h/mL. For the same compound, the CL [16] was 2.73 L/h, the CL [17] was 1.93 L/h and the CL [18] was 1.43 L/h. For the same compound, the CL [19] was 2.38 L/h, the CL [20] was 1.26 L/h and the CL [21] was 1.82 L/h. The Vdss [22] was 422 L, the Vdss [23] was 492 L and the Vdss [24] was 471 L. The Vdss [25] was 475 L, the Vdss [26] was 485 L and the Vdss [27] was 598 L. The “beta t1/2” value [28] was 123 h, the “beta t1/2” value [29] was 224 h and the “beta t1/2” value [30] was 302 h. For the same compound, the “beta t1/2” value [31] was 148 h, the “beta t1/2” value [32] was 292 h and the “beta t1/2” value [33] was 240 h. For the same compound, the AUC [34] was 0.195 µg/h/mL, the AUC [35] was 0.375 µg/h/mL and the AUC [36] was 0.433 µg/h/mL. For the same compound, the AUC [37] was 0.606 µg/h/mL, the Activity [38] was “Non-toxic” and the Activity [39] was “Non-toxic”. For the same compound, the Activity [40] was “Non-toxic”, the Activity [41] was “Non-toxic” and the Activity [42] was “Non-toxic”. The Activity [43] was “Non-toxic”, the AUC [44] was 0.685 µg/h/mL and the AUC [45] was 0.583 µg/h/mL.
